Results on twelve compounds are retold here after patent publication US10472395B2, “Cyclic peptide analogs and conjugates thereof” (Sirenas LLC, priority 2015, dated 2019).

Data set [1] relates to BT-474 human mammary gland ductal carcinoma cells. Briefly: Inhibitory response of test compounds against BT-474 cells (Cell Titer-Glo, 72 h). In kind it is cell-based. Particulars: Homo sapiens. How it is done: (§1) BT-474 human mammary gland ductal carcinoma cells were seeded in a clear polystyrene 96-well microculture plate (Corning® Costar® 96-well flat bottom plate, Cat.#3997) in a total volume of 90 μL/well. After 24 hours of incubation in a humidified incubator at 37° C. with 5% CO2 and 95% air, 10 μL of 10×, serially diluted test agents in growth medium were added to each well (10 pt dose response curve, highest concentration 10 μM of test agent). After 72 hours of culture in a humidified incubator at 37° C., in an atmosphere of 5% CO2 and 95% air, the plated cells and Cell Titer-Glo® (Promega G7571) reagents were brought to room temperature to equilibrate for 30 minutes. 100 μL of Cell Titer-Glo® reagent was added to each well. The plate was shaken for two minutes and then left to equilibrate for ten minutes. The media/Cell Titer-Glo® reagent was transferred to a white polystyrene 96-well microculture plate (Corning® Costar® 96-well flat bottom plate, Cat.#3917) before reading luminescence on a Tecan GENios microplate reader.
(§2) Percent inhibition of cell growth was calculated relative to untreated control wells. The IC50 value for the test agents was determined using Prism 6.05 by curve-fitting of the data using the following four parameter-logistic equation:
(§3) [formula] where Top is the maximal % of control absorbance, Bottom is the minimal % of control absorbance at the highest agent concentration, Y is the % of control absorbance, X is the agent concentration, IC50 is the concentration of agent that inhibits cell growth by 50% compared to the control cells, and n is the slope of the curve.

Data set [2] deals with HCC1954 cells. Put plainly: Inhibitory response of test compounds against HCC1954 cells (method analogous to BT-474). It is filed as cell-based. The note with it: Homo sapiens. How it is done:
as §1, §2, §3
Inhibitory response of test compounds against HCC1954 cells was determined using a method analogous to that used for BT-474 cells.

Data set [3] deals with several cancer cell lines. The note with it: Y. Nakao et al., J. Nat. Prod. 2004, 67, 1332-1340; cited from earlier work.
The subject of data set [4] is HeLa S3 cells. The note with it: K. Suenaga et al., Bioorg. Med. Chem. Lett. 2008, 18, 3902-3905; cited from earlier work.

Numbered stars: 1 amine (or outer) side, 2 acyl side, 3 side chain; on linkers, the order of the positions; unused ones are H or OH. Bridge positions count the residues as written; N and C are the ends. Square brackets hold non-standard residues; d marks the D form. Peptide text beside a SMILES is read from it. ξ: configuration not given here. X12 = CC/C=C(\C)[C@@H](O[*:2])[C@@H](C)[C@@H](O)C/C=C(\C)C(=O)[*:1]; X3 = C/C=C(\C)[C@@H](O[*:2])[C@@H](C)[C@@H](O)C/C=C(\C)C(=O)[*:1]; X8 = C/C=C(\C)[C@@H](O[*:2])[C@@H](C)CC/C=C(\C)C(=O)[*:1]; X2 = C/C(=C\CCC[C@@H](O[*:2])C(C)C)C(=O)[*:1]; X7 = C/C(=C\CCC[C@H](O[*:2])C(C)C)C(=O)[*:1]; Hmp(2R,3S) = CC[C@H](C)[C@@H](O)C(=O)O; dNMeF = CN[C@H](Cc1ccccc1)C(=O)O; Ile(3ξ) = CCC(C)[C@H](N)C(=O)O; dHica = CC(C)C[C@@H](O)C(=O)O; dNMeL = CN[C@H](CC(C)C)C(=O)O; NMeA = CN[C@@H](C)C(=O)O; dNMeA = CN[C@H](C)C(=O)O; Sar = CNCC(=O)O Where only a bound is given, the exact number is not on record here.

Usually IC50 stands for the midpoint of a concentration-inhibition curve. A low value points to inhibition by little substance. With `C/C=C(\C)[C@H]1OC(=O)[C@@H](C)NC(=O)[C@H](C(C)CC)NC(=O)CN(C)C(=O)[C@@H](Cc2ccccc2)N(C)C(=O)[C@H](C)NC(=O)[C@@H](CC(C)C)OC(=O)/C(C)=C/C[C@H](O)[C@@H]1C` (stereo partly shown) [Kulo-2, kulo-2, reference compound], the concentration for half-maximal inhibition (IC50) in data set [1] was under 20 nM; in data set [1] (72 h, Cell Titer-Glo), 1.76 nM; in data set [2], under 20 nM. Also, the “cytotoxicity against several cancer cell lines” value in data set [3] is on record as “potent cytotoxicity”.
Consider `CC/C=C(\C)[C@H]1OC(=O)[C@H](C)N(C)C(=O)[C@H](C(C)C)NC(=O)CN(C)C(=O)[C@@H](CC(C)C)N(C)C(=O)[C@H](C(C)C)NC(=O)[C@@H]([C@@H](C)CC)OC(=O)/C(C)=C/C[C@H](O)[C@@H]1C` [Aurilide, aurilide] ([Hmp(2R,3S)]V[dNMeL][Sar]V[NMeA]; linker N-C via X12), for which the “cytotoxicity against HeLa S3 cells” value in data set [4] is reported as “potent cytotoxicity”.
On to `C/C=C(\C)[C@H]1OC(=O)[C@@H](C)NC(=O)[C@H](C(C)CC)NC(=O)CN(C)C(=O)[C@@H](Cc2ccc(OC)cc2)N(C)C(=O)[C@H](C)NC(=O)[C@@H](CC(C)C)OC(=O)/C(C)=C/C=C/[C@@H]1C` (stereo partly shown) [Compound 95], for which the IC50 in data set [1] is under 20 nM; in data set [2], 20 to 200 nM.
For `C/C=C(\C)[C@H]1OC(=O)[C@@H](C)NC(=O)[C@H](C(C)CC)NC(=O)CN(C)C(=O)[C@@H](Cc2ccccc2)N(C)C(=O)[C@H](C)NC(=O)[C@@H](CC(C)C)OC(=O)/C(C)=C/C[C@H](OCSC)[C@@H]1C` (stereo partly shown) [Compound 94] the same measures were under 20 nM and under 20 nM.
The corresponding values for `C/C=C(\C)[C@H]1OC(=O)[C@@H](C)NC(=O)[C@H]([C@H](C)CC)NC(=O)CN(C)C(=O)[C@@H](Cc2ccccc2)N(C)C(=O)[C@H](C)NC(=O)[C@@H](CC(C)C)OC(=O)/C(C)=C/C[C@H](OC(=O)NCCCCCCNC(=O)CCOCCOCCOCCOCCNC(=O)c2ccc(C=O)cc2)[C@@H]1C` [Compound 111] are over 10000 nM and over 10000 nM.
For `C/C=C(\C)[C@H]1OC(=O)[C@@H](C)NC(=O)[C@H](C(C)CC)NC(=O)CN(C)C(=O)[C@@H](Cc2ccccc2)N(C)C(=O)[C@H](C)NC(=O)[C@@H](Cc2ccccc2)NC(=O)/C(C)=C/C[C@H](O)[C@@H]1C` (stereo partly shown) [Compound 64] ([dF]A[dNMeF][Sar][Ile(3ξ)][dA]; linker N-C via X3) the same measures were under 20 nM and 20 to 200 nM.
In the case of `C/C=C(\C)[C@H]1OC(=O)[C@@H](C)N(C)C(=O)[C@H](C(C)CC)NC(=O)CN(C)C(=O)[C@@H](Cc2ccccc2)N(C)C(=O)[C@H](C)NC(=O)[C@@H](CC(C)C)OC(=O)/C(C)=C/CC[C@@H]1C` (stereo partly shown) [Compound 100] ([dHica]A[dNMeF][Sar][Ile(3ξ)][dNMeA]; linker N-C via X8), the figures for the IC50 in data set [1] and in data set [2] were under 20 nM and 20 to 200 nM, respectively.
For `C/C=C(\C)[C@H]1OC(=O)[C@@H](C)NC(=O)[C@H](C(C)CC)NC(=O)CN(C)C(=O)[C@@H](Cc2ccccc2)N(C)C(=O)[C@H](C)NC(=O)[C@@H](CC(C)C)NC(=O)/C(C)=C/C[C@H](O)[C@@H]1C` (stereo partly drawn) [Compound 63] ([dL]A[dNMeF][Sar][Ile(3ξ)][dA]; linker N-C via X3) the same measures were under 20 nM and 20 to 200 nM.
For the compound `CCC(C)[C@@H]1NC(=O)CN(C)C(=O)[C@@H](Cc2ccccc2)N(C)C(=O)[C@H](C)NC(=O)[C@@H](CC(C)C)OC(=O)/C(C)=C/CCC[C@@H](C(C)C)OC(=O)[C@@H](C)N(C)C1=O` (stereo partly shown) [Compound 88] ([dHica]A[dNMeF][Sar][Ile(3ξ)][dNMeA]; linker N-C via X7), the half-inhibitory concentration (IC50) in data set [1] and in data set [2] was 200 to 10000 nM in each case.
For `CCC(C)[C@@H]1NC(=O)CN(C)C(=O)[C@@H](Cc2ccccc2)N(C)C(=O)[C@H](C)NC(=O)[C@@H](CC(C)C)OC(=O)/C(C)=C/CCC[C@H](C(C)C)OC(=O)[C@@H](C)N(C)C1=O` (stereo partly shown) [Compound 89] ([dHica]A[dNMeF][Sar][Ile(3ξ)][dNMeA]; linker N-C via X2), the half-maximal inhibitory concentration (IC50) in data set [1] was in the range of 20 to 200 nM; in data set [2], 200 to 10000 nM.
The corresponding values for `C/C=C(\C)[C@H]1OC(=O)[C@@H](C)NC(=O)[C@H]([C@H](C)CC)NC(=O)CN(C)C(=O)[C@@H](Cc2ccc(Cl)cc2)N(C)C(=O)[C@H](CCCCNC(=O)OC(C)(C)C)NC(=O)[C@@H](CC(C)C)OC(=O)/C(C)=C/CC[C@@H]1C` [Compound 119] are under 20 nM and under 20 nM.
As to `C/C=C(\C)[C@H]1OC(=O)[C@@H](C)NC(=O)[C@H]([C@H](C)CC)NC(=O)CN(C)C(=O)[C@@H](Cc2ccccc2)N(C)C(=O)[C@H](C)NC(=O)[C@@H](CC(C)C)OC(=O)/C(C)=C/C[C@H](OC(=O)NCCCOCCOCCOCCCNC(=O)c2ccc(C(C)=O)cc2)[C@@H]1C` [Compound 116], the results for the half-maximal inhibitory concentration (IC50) in data set [1] and in data set [2] were under 20 nM and 20 to 200 nM, respectively.
